Converted amounts (≈) assume the structure as drawn. Where two headings read alike, the source gives them in different places.
What was measured:
PHL [1] = target: T1, PHL (Photorhabdus asymbiotica, UniProt C7BLE4); assay: Hemagglutination inhibition assay with PHL (papain-treated human RBCs O); assay type: cell-based; conditions: for MIC (minimal inhibitory concentration, hemagglutination by PHL): RBC O, two independent measurements; for PotencyL-Fuc: MIC L-fucose / MIC ligand; for β L-Fuc (affinity improvement factor): MICbasic unit/(valency × MICligand), basic unit L-Fuc
Protocol: The set of potential ligands 1–10 with different levels of fucosylation was tested, and their inhibition potency on hemagglutination by PHL was assessed (Table 1, Fig. 2). […] To assess the contribution of valency to the affinity increase, an affinity improvement factor β was calculated as the relationship MICbasic unit/(valency × MICligand).
Human red blood cells (RBCs) O were processed according to previously published work[16]. In brief, RBCs O treated with sodium citrate were washed four times by PBS buffer (137 mM NaCl, 2.7 mM KCl, 8 mM Na2HPO4, 1.47 mM KH2PO4, pH 7.4), diluted to 50% by PBS with 0.005% (w/w) sodium azide and treated by 0.1% papain for the duration of 30 minutes.
Hemagglutination inhibition assay was performed for specificity and semi-quantitative affinity of the PHL interaction with the compounds. All carbohydrate inhibitors in 50 mM starting concentration were serially diluted in the PBS buffer and used for a determination of the lowest inhibiting concentration. As a blank, the PBS buffer supplemented with the appropriate amount of DMSO was used in order to exclude potential interference with the interaction. The individual samples were mixed with the lectin in concentration 2 mg/ml in a 5 μl:5 μl ratio. Thereafter, 10 μl of 10% RBCs O in PBS buffer was added, thoroughly mixed and incubated for 10 minutes at room temperature. Following incubation, the mixture was again mixed and the reaction was observed on microscope slides using Levenhuk 2L NG microscope with Levenhuk D2L digital camera (Levenhuk, USA). Imagines were obtained via software ToupView for Windows (Levenhuk). The positive (PHL without inhibitor) and negative control (reaction without PHL) were prepared and processed in the same way using the appropriate volume of PBS buffer instead of the not included components. The lowest concentration of inhibitor able to inhibit agglutination was determined and compared with the standard (L-fucose). Minimal inhibitory concentrations (MIC) of synthesised inhibitors were determined from two independent measurements.

[2] = system: P. asymbiotica subsp. australis cells; assay: Cell aggregation (cross-linking) assay; assay type: cell-based, Photorhabdus asymbiotica subsp. australis; conditions: three independent measurements
Source text: Because of the aggregation of PHL by calixarenes and dendrimers during SPR and ITC experiments, we decided to compare tetravalent compounds at a higher level. We performed a series of in vitro aggregation assays to reveal their aggregation properties towards P. asymbiotica subsp. australis (Table 4, Fig. 5). Prior to each assay, we confirmed the absence of aggregates in two negative controls – bacterial cells in PBS buffer and in the presence of azide 1 as a monomer. With all chosen compounds, we observed bacterial aggregates of a variable size that confirmed that they are capable of interacting with a cell surface. This effect may be caused by interaction of the multivalent inhibitors with PHL or other receptors. The concentration of the first appearance of aggregates varied according to the nature of the ligand used. […] An unexpected observation was that calixarene 7 had the lowest aggregation potential. In contrast to other techniques (hemagglutination, SPR and ITC), where calixarenes 6 and 7 provided similar results, during cross-linking experiments calixarene 7 was four times worse than calixarene 6. At the same time, both tetrameric calixarenes 6 and 7 are in a 1,3-alternate conformation with the two-faced presentation of the fucopyranosyl epitopes on opposite regions probably occupying a similar spatial orientation. The only difference is the tert-Bu group on the upper rim in calixarene 6, which might contribute to nonpolar interactions with whole P. asymbiotica cells.
P. asymbiotica subsp. australis was inoculated from stock cells stored at −80 °C into a standard LB media and were grown in 30 °C under an orbital shaking overnight. Bacterial growth was tracked by measuring the optical density of the broth at 600 nm (OD600) using a spectrophotometer (Biochrom Ltd., BioPhotometer WGA CO 8000 Biowave). Cells were harvested when reaching an OD600 = 0.5. The culture was centrifuged at 4,300 g and room temperature for 2 minutes (Minispin, Eppendorf, Germany) and cells were then washed three times with PBS buffer. Cells were diluted in PBS to OD600 of 2.0 and kept in a fridge until performing the aggregation assay.
P. asymbiotica subsp. australis cells and fucosylated compounds in a concentration ranging from 50 mM to 3.125 mM were gently mixed in a 9:1 (v/v) ratio. The reaction mixtures were left at room temperature for 10 minutes. 5 µl of reaction mixture was then transferred onto a microscope slide and observed under a fluorescence microscope (OLYMPUS IX81 Microscope IX81F-3 with IX2-UCB-2 Controller and X-Cite 120PC Q; Olympus and Excelitas Technologies, Japan, resp. USA). As a negative control, bacterial cells with/without azide 1 as a monomer were used. Three independent measurements were performed.

PHL [3] = target: T1, PHL; assay: SPR competitive inhibition of PHL binding to α-L-fucoside sensor chip; conditions: for IC50: 25 °C, three independent measurements; for β L-Fuc (affinity improvement factor): IC50,basic unit/(valency × IC50,ligand), basic unit L-Fuc; for PotencyL-Fuc: IC50 L-fucose / IC50 ligand
Protocol: To analyse the competitive inhibition of PHL binding to a multivalent surface, the surface plasmon resonance (SPR) technique was employed. A sensor chip presenting α-L-fucopyranoside residues was treated with a constant concentration of PHL, while an increasing concentration of the ligands was used to determine IC50 (Table 2, Fig. 3). […] To assess the contribution of valency to the affinity increase, an affinity improvement factor β was calculated as the relationship IC50,basic unit/(valency × IC50,ligand)[30].
Surface plasmon resonance (SPR) experiments were performed on a BIAcore T200 instrument (GE Healthcare, UK) at 25 °C, using buffer A supplemented with 0.05% Tween 20 as a running buffer. α-L-fucoside was immobilized onto CM5 sensor chip (GE Healthcare, UK) covered with a carboxymethylated dextran matrix. The sensor chip surface was activated with N-ethyl-N-(3-dimethylaminopropyl)carbodiimide/N-hydroxysuccinimide solution and then coated with streptavidin using the manufacturer’s standard protocol using HBS buffer (10 mM HEPES, 150 mM NaCl, 0.05% Tween 20, pH 7. 5). Unreacted groups were blocked with 1 M ethanolamine-HCl, pH 8.5. Biotinylated carbohydrate (biotinilated monomeric probes, Lectinity, Russia) was injected onto particular measuring channel and pure biotin on blank channel at a flow rate of 5 μl/min.
SPR inhibition measurements were carried out on measuring channel with L-fucoside at a flow rate of 5 µl/min. PHL was diluted to a concentration of 20 μg/ml by the buffer A supplemented with 0.05% Tween 20, mixed 1:1 (v/v) with various concentrations of inhibitors (500–5 μM) in the same buffer and injected onto the sensor chip. The response of lectin bound to the sugar surface at equilibrium was plotted against the concentration of inhibitor in order to determine IC50 (concentration of inhibitor resulting in 50% inhibition of binding). As IC50 is not a constant and depends on the experimental set-up, a parameter called potency was used for characterization. The potency of a tested inhibitor is the ratio of IC50 of a chosen standard inhibitor (in this case L-fucose) and the inhibitor in question. Pure PHL lectin was used as a control (0% inhibition) and channel with pure biotin served as a blank. IC50 was determined from triplicates.

PHL [4] = target: T1, PHL; assay: Isothermal titration calorimetry of PHL with ligands; assay type: binding
Source text: The binding of PHL to different α-L-fucoside compounds was further characterized by isothermal titration calorimetry (ITC), enabling determination of the complete thermodynamic profile of the molecular interactions (Table 3, Fig. 4). […] Because of this, it was not possible to evaluate the data, despite the obvious interaction. The dendrimers also cross-linked/aggregated the protein as with calixarenes, however the curves provided clear outcomes with an affinity in the low micromolar range. The dissociation constants (KD) of all dendrimers correlate with their valency – the higher number of fucose, the more decreased KD. […] The stoichiometry value n corresponds to the number of terminal fucoses per ligand molecule. The n value decreases from 4 to 1 as the number of fucose units increases from 1 to 12 (Table 3).
PHL protein in buffer A was equilibrated at room temperature at least for 30 min before ITC measurement. All ITC experiments were performed using ITC200 calorimeter (Malvern Panalytical, UK) at 25 °C. Carbohydrate ligands dissolved in buffer A were used at different concentrations. Protein in the calorimeter cell (50 μM) was titrated by consecutive additions (2 μl) of the ligand (1.5–5 mM) in the syringe while stirring at 1000 rpm. Integrated heat effects were analysed by nonlinear regression using a single-site binding model and global fitting in Origin 7 software (Microcal Instruments)[37]. The thermodynamic parameters of synthesised inhibitors were determined from two independent measurements.

PHL [5] = target: T1, PHL; design: method as in PMID 28806750; conditions: SPR competition assay, earlier work; cited from earlier work

T1 sequence (C7BLE4 entry or part of it): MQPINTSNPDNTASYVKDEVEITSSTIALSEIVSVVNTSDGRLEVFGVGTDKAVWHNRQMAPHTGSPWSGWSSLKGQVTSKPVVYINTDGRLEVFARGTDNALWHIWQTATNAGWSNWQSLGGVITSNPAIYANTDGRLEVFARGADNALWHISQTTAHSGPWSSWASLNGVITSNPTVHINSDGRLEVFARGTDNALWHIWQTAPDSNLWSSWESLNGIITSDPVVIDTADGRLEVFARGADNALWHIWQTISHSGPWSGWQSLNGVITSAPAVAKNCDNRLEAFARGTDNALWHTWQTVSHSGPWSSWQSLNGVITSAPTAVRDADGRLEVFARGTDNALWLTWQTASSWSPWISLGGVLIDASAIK

SMILES | MIC (minimal inhibitory concentration, hemagglutination by PHL) (PHL [1]) [µM] | PotencyL-Fuc (PHL [1]; hemagglutination) | β L-Fuc (affinity improvement factor) (PHL [1]; hemagglutination) | β Azide1 (affinity improvement factor) (PHL [1]; hemagglutination, basic unit azide 1) | PotencyAzide1 (PHL [1]; hemagglutination, relative to azide 1) | The lowest concentration able to aggregate P. asymbiotica cells [2] [mM] | IC50 (PHL [3]) [µM] | β L-Fuc (affinity improvement factor) (PHL [3]) | PotencyL-Fuc (PHL [3]) | β Azide1 (affinity improvement factor) (PHL [3]; basic unit azide 1) | PotencyAzide1 (PHL [3]; relative to azide 1) | Kd (PHL [4]; ITC at 25 °C) [µM] | −TΔS (PHL [4]; ITC at 25 °C) [kcal/mol] | −ΔG (PHL [4]; ITC at 25 °C) [kcal/mol] | −ΔH (PHL [4]; ITC at 25 °C) [kcal/mol] | n (stoichiometry) (PHL [4]; ITC at 25 °C, two independent measurements) | Potency L-Fuc (PHL [4]; ITC, KD L-fucose / KD ligand) | β L-Fuc (affinity improvement factor) (PHL [4]; ITC, KD,basic unit/(valency × KD,ligand), basic unit L-Fuc) | IC50 (PHL [5]) [µM] | fold stronger ligand than free L-fucose (PHL [5]) [fold]
C[C@@H]1O[C@@H](CCn2cc(COc3c4cccc3Cc3cccc(c3OCc3cn(CC[C@@H]5O[C@@H](C)[C@@H](O)[C@@H](O)[C@@H]5O)nn3)Cc3cccc(c3OCc3cn(CC[C@@H]5O[C@@H](C)[C@@H](O)[C@@H](O)[C@@H]5O)nn3)Cc3cccc(c3OCc3cn(CC[C@@H]5O[C@@H](C)[C@@H](O)[C@@H](O)[C@@H]5O)nn3)C4)nn2)[C@@H](O)[C@H](O)[C@@H]1O [Calixarene 7] | 100 (≈ 145 µg/mL) | 31.3 | 7.8 | 0.5 | 2 | 5 | 0.178 ± 0.02 | 508 | 2,029 | approximately 15 | 61 | – | – | – | – | – | – | – | – | –
CO[C@@H]1O[C@@H](C)[C@@H](O)[C@@H](O)[C@@H]1O [α-Me-Fuc, methyl α-L-fucopyranoside, reference compound] | 400 (≈ 71.3 µg/mL) | 7.8 | 7.8 | – | – | – | 38.5 ± 1.2 | 9 | 9 | – | – | 267 ± 11 | 9.23 ± 1.03 | 4.88 ± 0.22 | 14.1 ± 1 | 2.9 ± 0.2 | 5 | 5 | 40 | ~10

From paper PMC6797808, “Fucosylated inhibitors of recently identified bangle lectin from Photorhabdus asymbiotica” (Scientific Reports, 2019)
